Results on 89 molecules are retold here after a melting point compilation (Tetko et al.; mined from patent text by program, amines drawn as free bases though some values may be those of a salt).

Bounds are passed on as bounds.

Take `Oc1ccc2c(c1)CCNC21CCSCC1`: the melting point – broadly, the temperature, or range, at which the solid turns liquid – lay within 211 to 213 °C. The value for `O=C(OCC1OC(Oc2ccc([N+](=O)[O-])cc2)C(OC(=O)c2ccccc2)C(OC(=O)c2ccccc2)C1O)c1ccccc1` (centres undefined) was 180 to 181 °C; that for `CC1Nc2cc(-c3ccc(Cl)cc3)ccc2NC1=O` (centres undefined) was 228 to 230 °C. Molecule `CCCCc1c(Cl)cccc1NC(=O)C(C)(C)C` came in with a melting point of 88 to 89 °C. Then `CCOC(=O)c1ccc(NCC(C)Oc2ccc(F)cc2)cc1` (centres undefined), with 96 to 98 °C; and `C=CCN1CCC(c2cc(-c3ccc(Cl)cc3)[nH]n2)CC1`, with 165 to 167 °C. The value for `O=c1cc(-c2ccccc2)[nH]c(=S)[nH]1` was 266 to 267 °C. The value for `Cn1c(CCN2CCN(c3cccc(C(F)(F)F)c3)CC2)nc2cc(Br)c3ccccc3c21` was 165 to 166 °C. In turn, `c1ccc2c(c1)[nH]c1cnc(-c3nc(C4CC4)no3)cc12` gave a melting point of 256 to 257 °C. Then `Cc1ccc(C)n1N(C)c1ccc(N2CCOCC2)nn1`, with 119 to 122 °C; and `CC(=O)c1cnc2c(c1)[C@@H](NC(=O)c1ccccc1Cl)[C@H](O)C(C)(C)O2` (relative stereo), with 243 to 244 °C. Then `Nc1ncnc2[nH]c(=S)sc12`, with more than 370 °C. Then `O=Cc1ccc2c(=O)c3ccccc3ccc2c1`, with 149 to 152 °C. `O=C(O)c1cccc([N+](=O)[O-])c1SCc1ccccc1` gave a melting point of 152 to 153 °C. Then `CC(C)(C)c1ccc(-c2ccc(C(CCC(=O)O)=NO)cc2)cc1`, with 170 to 172 °C; and `CCCn1ncnc1COc1nn2c(-c3ccc(F)cc3)nncc2c1C(C)(C)C`, with 154 °C; and `O=C(c1ccccc1)N1CCC2(CCc3c2[nH]c2ccccc32)CC1`, with 231 to 232 °C. Then `Fc1cc(Cl)cc2cc(-c3ccccc3)[nH]c12`, with 153 to 155 °C; and `COc1cccc2c(=O)[nH]c(C)nc12`, with 261 to 262 °C.

Molecule `CCc1ccc(-c2cc3c(O)cccc3o2)s1` had a melting point of 87 to 90 °C. Then `COc1ccc(C=C(c2ccc(OCc3ccccc3)cc2)N(C)C)cc1`, with 60 °C; and `Nc1ccc2ccc(SCc3ccccc3)nc2n1`, with 167 °C; and `OC1CSC(Oc2cncc(Cl)c2)C(O)C1O` (centres undefined), with 184 °C.

`CCOC(=O)C(=O)c1csc(NC(c2ccccc2F)c2ccccc2F)n1` displayed a melting point of 122 to 124 °C. The value for `Fc1ccc2c(C3CCC4(CC3)OCCO4)c[nH]c2c1` was 158 to 159 °C. The value for `CCCC(CCC)C(=O)NCC(=O)CCCCCCCCCCCCN(N)C(=O)n1cc(F)c(=O)[nH]c1=O` was 116 to 118 °C; that for `Cc1c(-c2ccc(OCC3CC3)cc2)nc2n(Cc3c(F)cccc3F)cc(Br)c(=O)n12` was 230 to 231 °C.

In turn, `CSc1ccc(COC(=O)N2CCN(CC3(C)Cn4cc([N+](=O)[O-])nc4O3)CC2)cc1` (centres undefined) gave a melting point of 118 to 120 °C. The value for `O=c1[nH]c2cc(Cl)ccc2c(NS(=O)(=O)c2ccccc2)c1-c1ccccc1` was 268 °C; that for `CC(C)(C)[Si](C)(C)OC1CC(=O)c2cc(F)ccc21` (centres undefined) was 56 to 58 °C. `CCn1c(C)c(C2(N(c3ccccc3)c3ccccc3)OCc3cccnc32)c2ccccc21` (centres undefined) gave a melting point of 132 to 136 °C. The value for `CCCNC(=O)Nc1ccccc1C(=O)OCC` was 98 to 99 °C; that for `CCCCOC(=O)c1cc(OC(=O)OC)c2c(c1)C(=O)c1cccc(OC(=O)OC)c1C2=O` was 200 to 202 °C; that for `COCC(=O)Nc1c(C(O)(C(F)(F)F)C(F)(F)F)ccc2ccccc12` was 120 to 121 °C. The value for `CCc1nc2c(N)nc3ccccc3c2n1CCCCS(C)(=O)=O` was 182 to 185 °C; that for `COc1ccc(CSc2nnc(-c3ccc4ncsc4c3)o2)cc1C(F)(F)F` was 145 to 146 °C.

For the molecule `CCOC(=O)/C=C/c1cc(C(F)(F)F)ccc1C(=O)NCC(F)(F)F`, the melting point came out at 162 °C. The value for `COc1ccccc1-c1cccn2nc(Nc3ccc4c(c3)CCN(CC(=O)N(C)C)CC4)nc12` was 102 to 105 °C; that for `O=C1Nc2ccccc2Nc2nc(-c3ccccc3)ncc21` was 260 to 261 °C. The value for `O=C(c1ccccc1)c1cnc2c(-c3cc(-c4ccccc4)cs3)cnn2c1O` was 277 to 290 °C.

`Cc1nn(-c2ccc(C#N)c(Cl)c2)c(C)c1Oc1ccc(NC(=O)C(C)(C)C)cn1` showed a melting point of 191 to 192 °C. The value for `Cc1oc(-c2ccccc2)nc1CCCCCO` was 40 to 42 °C; that for `COC(=S)c1sc(C)c(Cl)c1OC` was 82 to 83 °C. The value for `Cc1ccc2c3c(ccc2n1)OC[C@H](CN1CCN(c2ccc(C)c(C)c2)CC1)O3` was 118 to 120 °C; that for `Nc1ccccc1CCN1CCN(c2nsc3ccccc23)CC1` was 149 °C. The value for `CC12CCC(OC(=O)C(F)(F)F)CC1=CCC1=C2CCC2(C)C(=O)CCC12` (centres undefined) was 109 to 115 °C; that for `CSC(=NC#N)Nc1ccc(C#N)cc1` was 220 to 225 °C; that for `COc1cc(C)c(C(=O)c2c(OC)cnc(Cl)c2C(F)(F)F)c(OC)c1OC` was 117 to 119 °C. Regarding `CN1CCN(c2ccc(Cl)nn2)CC1`, the melting point was 106 to 107 °C. The value for `CC12CCC(O)CC1=CCC1C2CCC2(C)C(n3cnc4ccccc43)=CCC12` (centres undefined) was 189 to 190 °C; that for `N#Cc1nn(-c2c(Cl)cc(C(F)(F)F)cc2Cl)cc1C1C=CCC1` (centres undefined) was 76 to 80 °C. The value for `O[C@@H]1CN(Cc2ccccc2)C[C@H]1Oc1ccccc1` (relative stereo) was 88.5 to 90 °C. The value for `C#CCOc1cc(-c2cc(C)c(C(F)(F)F)n(C)c2=O)c(F)cc1Cl` was 107 to 108 °C. Take `NS(=O)(=O)c1ccc(-c2c(-c3ccccc3)noc2CCO)cc1`: the melting point was in the range of 186 to 190 °C. In turn, `COc1cc(C)c2[nH]ccc2c1C(N)(c1nc2cc(C#N)ccc2[nH]1)C(F)(F)F` (single isomer, unassigned; (-)) registered a melting point of 255 °C. Then `CCc1nc(Cl)c(Oc2cc(OC)ccc2Cl)c(Cl)n1`, with 113 to 114 °C. In turn, `O=C(CCCl)n1ccc2ccccc21` displayed a melting point of 67 °C. Then `O=C(NCCCn1cnc(-c2ccccc2)c1)c1ccco1`, with 120 to 122 °C; and `O=C(O)[C@H](O)C1CCCCC1`, with 124 to 126 °C. The value for `CCOC(=O)N1CCN(c2ccc(C3=NNC(=O)CC3C)cc2F)CC1` (centres undefined) was 193 to 194 °C; that for `N#Cc1ccc(C(F)(F)F)cc1N=NNc1cc(C(F)(F)F)ccc1C#N` was 183 to 184 °C. Then `Nc1nc(N)c2c(ccc3c2c2c(n3Cc3ccccc3)CCCC2)n1`, with 224 to 226 °C. On to `CC(C)n1cc(-c2nc(C(N)=O)c(N)nc2-c2ccc(OC(F)(F)F)cc2)ccc1=O`, for which the melting point came to 264 °C. The value for `CCC(c1cc2c(-c3ccc(C(F)(F)F)n(C)c3=O)c(F)cc(Cl)c2o1)S(C)=O` (centres undefined) was 125 to 127 °C. In turn, `NS(=O)(=O)c1cc(CO)cc(NCc2ccccc2)c1S(=O)c1ccccc1` (centres undefined) registered a melting point of 213 to 214 °C.

Regarding `O=C1Cc2ccc3ccccc3c2C(c2ccccc2F)N1` (centres undefined), the melting point lay in the range of 265 to 268 °C. `O=C(Nc1cc(-c2nc(-c3ccco3)no2)ccc1Cl)Oc1ccccc1` gave a melting point of 177 to 178 °C.

`O=C(O)c1ccc(F)cc1Sc1ccc(F)cc1` gave a melting point of 209 to 218 °C. The value for `Oc1ccc(-c2nn(C3CCCC3)c3c(C(F)(F)F)cccc23)c(O)c1` was 159 to 160 °C. The value for `CC(C)c1ccc(N(Cc2cnn(CCN(C)C)c2)C(=O)C2CCCc3c(O)cccc32)cc1` (centres undefined) was 92 °C; that for `O=C(NCCCCc1ccccc1)OC1CCN(C(=O)OC2CCN(C(=O)Oc3ccc(Oc4ccccc4)cc3)CC2)CC1` was 50 to 60 °C.

Molecule `CC1(C)OC(C=Cc2ccnc3ccccc23)=CC1=O` gave a melting point of 117 to 118 °C. The value for `CCOCc1nc2c(N)nc3cc(Br)ccc3c2s1` was 201 to 204 °C.

As to `Cn1ccnc1COc1ccccc1[N+](=O)[O-]`, the melting point fell in the range of 172 to 174 °C. Then `CC(C)(C)OC(=O)Nc1ccc2ccc(C#N)cc2c1`, with 126 to 128 °C; and `O=C(O)CCOc1ccccc1-c1nc(-c2ccccc2)no1`, with 170 to 171 °C. The value for `CNC(=O)c1ccc(-c2ccc(NC(=O)NCc3cccnc3)cc2)nc1NCCN(C)C` was 163 to 165 °C; that for `O=C(COC(=O)c1ccccc1Nc1ccnc2c(C(F)(F)F)cccc12)OC1CCN(Cc2ccccc2)CC1` was 99 to 100 °C. Then `Cc1ccc(-c2nc(-c3ccc(C)cc3C)nc(-c3ccc(O)cc3O)n2)c(C)c1`, with 199 to 201 °C; and `COC(=O)c1ccc2[nH]c(=O)oc(=O)c2c1`, with 275 to 278 °C; and `O=CNc1cccc(C(=O)Nc2ccc(-c3ccccc3)cc2)c1O`, with 190 °C. In turn, `NS(=O)(=O)c1ccc(-c2cc(-c3nc(-c4ccc(C(F)(F)F)nc4)cc(C(F)F)n3)ccn2)s1` had a melting point of 270 °C.

`OC1(c2ccccc2)C(c2ccccc2)SC2=NCCCCN21` (centres undefined) came in with a melting point of 100 to 103 °C. The molecule `CCOc1ccc(-c2ccc3c(c2)C=C(C(=O)Nc2ccc(CN(C)C4CCOCC4)cc2)CCN3C=O)cc1F` showed a melting point of 193 to 196 °C.

`CN1CCc2nc3cc(Cl)ccc3c(Oc3ccccc3)c2C1`: the melting point was in the range of 138 to 139 °C.

Molecule `CN(C)c1cccc(Oc2cccc(Cl)n2)c1` showed a melting point of 71 to 72 °C. Take `O=[N+]([O-])c1ccc(OC2OC(CO)C(O)C2O)cc1` (centres undefined): the melting point was 156 to 158 °C. As to `CNC(=O)c1ccnc(N2CCN(Cc3ccc(F)cc3)C2=O)c1`, the melting point was 118 to 120 °C. On to `Cc1ccc(NC(=O)c2cc(Cl)ccc2NCC2CCN(C3CCCC3)CC2)nc1`, for which the melting point lay in the range of 150 to 152 °C.
